Laboratory results as given in US20250388553A1 (Incyte Corporation, priority 2018, published 2025).
Structures can show the parent of a compound that is named as a salt. Where two headings read alike, the source gives them in different places.

Key:
[1] = molecular target: PI3Kγ (p110γ) Recombinant Human Protein (Homo sapiens (Human), UniProt P48736); experiment: PI3K-γ scintillation proximity assay; type: biochemical
[2] = molecular target: PI3Kδ (p1106/p85a) Recombinant Human Protein (Homo sapiens (Human), UniProt O00329); experiment: PI3Kδ scintillation proximity assay; type: biochemical
PI3Kδ (p1106/p85a) Recombinant Human Protein, sequence (O00329 whole entry): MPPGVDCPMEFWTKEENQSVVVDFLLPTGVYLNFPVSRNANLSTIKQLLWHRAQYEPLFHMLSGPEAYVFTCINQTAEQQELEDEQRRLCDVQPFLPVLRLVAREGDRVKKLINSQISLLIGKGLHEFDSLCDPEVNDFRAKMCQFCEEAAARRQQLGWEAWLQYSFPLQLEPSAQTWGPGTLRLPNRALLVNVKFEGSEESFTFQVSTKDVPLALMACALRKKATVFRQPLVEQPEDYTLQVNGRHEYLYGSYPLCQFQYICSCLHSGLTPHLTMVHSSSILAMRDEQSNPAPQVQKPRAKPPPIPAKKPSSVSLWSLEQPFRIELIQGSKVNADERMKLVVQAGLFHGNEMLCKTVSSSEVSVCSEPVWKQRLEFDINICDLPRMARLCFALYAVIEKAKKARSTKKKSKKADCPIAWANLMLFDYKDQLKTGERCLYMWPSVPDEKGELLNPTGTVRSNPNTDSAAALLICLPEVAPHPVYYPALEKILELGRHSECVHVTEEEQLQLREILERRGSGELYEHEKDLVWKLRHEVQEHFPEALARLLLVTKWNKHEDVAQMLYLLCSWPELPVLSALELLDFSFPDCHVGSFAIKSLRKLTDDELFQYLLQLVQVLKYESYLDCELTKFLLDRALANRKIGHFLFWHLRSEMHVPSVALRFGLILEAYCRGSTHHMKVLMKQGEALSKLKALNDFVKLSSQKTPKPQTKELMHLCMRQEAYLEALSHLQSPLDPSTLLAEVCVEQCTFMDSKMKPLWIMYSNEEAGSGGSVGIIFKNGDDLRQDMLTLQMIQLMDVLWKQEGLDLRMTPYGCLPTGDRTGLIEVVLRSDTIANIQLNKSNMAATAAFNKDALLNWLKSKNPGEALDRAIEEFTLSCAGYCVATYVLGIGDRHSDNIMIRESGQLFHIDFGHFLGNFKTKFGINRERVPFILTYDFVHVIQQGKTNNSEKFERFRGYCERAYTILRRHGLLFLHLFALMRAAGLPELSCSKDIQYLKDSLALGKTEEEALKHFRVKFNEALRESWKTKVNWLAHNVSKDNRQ
PI3Kδ (p1106/p85a) Recombinant Human Protein, sequence (P27986 whole entry partner): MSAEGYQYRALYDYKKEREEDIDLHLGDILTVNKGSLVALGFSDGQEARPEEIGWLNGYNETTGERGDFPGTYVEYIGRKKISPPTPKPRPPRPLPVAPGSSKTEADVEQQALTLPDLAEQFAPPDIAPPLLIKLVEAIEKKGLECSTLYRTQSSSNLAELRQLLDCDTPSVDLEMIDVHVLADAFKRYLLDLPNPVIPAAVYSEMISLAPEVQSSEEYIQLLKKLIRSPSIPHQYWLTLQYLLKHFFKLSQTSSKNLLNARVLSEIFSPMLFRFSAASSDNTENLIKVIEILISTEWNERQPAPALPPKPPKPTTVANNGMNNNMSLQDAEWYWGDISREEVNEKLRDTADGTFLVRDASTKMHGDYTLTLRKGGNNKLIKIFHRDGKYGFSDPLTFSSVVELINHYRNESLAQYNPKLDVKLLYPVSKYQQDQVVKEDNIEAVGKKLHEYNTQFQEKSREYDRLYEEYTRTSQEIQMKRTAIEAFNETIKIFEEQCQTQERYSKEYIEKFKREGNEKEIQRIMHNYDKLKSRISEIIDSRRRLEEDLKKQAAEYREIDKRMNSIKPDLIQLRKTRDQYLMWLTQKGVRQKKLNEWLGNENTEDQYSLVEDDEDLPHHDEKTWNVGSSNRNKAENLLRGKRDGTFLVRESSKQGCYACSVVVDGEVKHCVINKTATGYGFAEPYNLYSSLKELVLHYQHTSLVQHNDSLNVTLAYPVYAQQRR

[3] = tested on: Phosphorylated Ribosomal Protein S6 (RPS6) in THP-1 cells; experiment: THP-1 RPS6 ELISA assay; type: cell-based, Human; settings: THP-1 cells, 10 nM MCP-1, phospho-RPS6 ELISA, read-out: PI3Kγ_THP1_RPS6_ELISA IC50
Excerpt: Example A. THP-1 RPS6 ELISA Assay
To measure the Phosphorylated Ribosomal Protein S6 (RPS6) in cell lysates, THP-1 cells (Human Acute Monocytic Leukemia) are purchased from ATCC (Manassas, VA) and maintained in RPMI with 10% FBS (Gibco/Life Technologies, Carlsbad, CA). For the assay, THP-1 cells are serum starved overnight in RPMI, then plated in RPMI (2×10^5 cells/well in […]) into 96-well flat-bottom tissue culture treated plates (Corning, Corning, NY), in the presence or absence of a concentration range of test compounds. Covered plates are incubated for 2 hours at 37° C., 5% CO2 then treated with or without 10 nM MCP-1(MYBioSource, San Diego, CA) for 15 minutes at 37° C., 5% CO2. Plates are centrifuged at 1600 RPM and supernatants are removed. Cells are lysed in Lysis Buffer (Cell Signaling, Danvers, MA) with Protease Inhibitor (Calbiochem/EMD, Germany), PMSF (Sigma, St Louis MO), HALTS (Thermo Fisher, Rockford, IL) for 30 min on wet ice. Cell lysates are frozen at −80° C. before testing. The lysates are tested in the Human/Mouse/Rat Phospho-RPS6 ELISA (R&D Systems, Inc. Minn, MN). The plate is measured using a microplate reader (SpectraMax M5—Molecular Devices, LLC Sunnyvale, CA) set to 450 nm with a wavelength correction of 540. IC50 determination is performed by fitting the curve of inhibitor percent inhibition versus the log of the inhibitor concentration using the GraphPad Prism 5.0 software.
The compounds of the Examples were tested in the assays described in Examples A, B and C and found to have the IC50s are shown in Tables A1, A2, A3 and A4.

[4] = Table A3, scintillation proximity assay, recombinant human p110γ
[5] = Table A3, scintillation proximity assay, recombinant human PI3Kδ
[6] = Table A2, scintillation proximity assay, recombinant human p110γ
[7] = Table A2, scintillation proximity assay, recombinant human PI3Kδ
[8] = Table A1, scintillation proximity assay, recombinant human p110γ
[9] = Table A1, scintillation proximity assay, recombinant human PI3Kδ

PI3Kγ (p110γ) Recombinant Human Protein, sequence (P48736 whole entry): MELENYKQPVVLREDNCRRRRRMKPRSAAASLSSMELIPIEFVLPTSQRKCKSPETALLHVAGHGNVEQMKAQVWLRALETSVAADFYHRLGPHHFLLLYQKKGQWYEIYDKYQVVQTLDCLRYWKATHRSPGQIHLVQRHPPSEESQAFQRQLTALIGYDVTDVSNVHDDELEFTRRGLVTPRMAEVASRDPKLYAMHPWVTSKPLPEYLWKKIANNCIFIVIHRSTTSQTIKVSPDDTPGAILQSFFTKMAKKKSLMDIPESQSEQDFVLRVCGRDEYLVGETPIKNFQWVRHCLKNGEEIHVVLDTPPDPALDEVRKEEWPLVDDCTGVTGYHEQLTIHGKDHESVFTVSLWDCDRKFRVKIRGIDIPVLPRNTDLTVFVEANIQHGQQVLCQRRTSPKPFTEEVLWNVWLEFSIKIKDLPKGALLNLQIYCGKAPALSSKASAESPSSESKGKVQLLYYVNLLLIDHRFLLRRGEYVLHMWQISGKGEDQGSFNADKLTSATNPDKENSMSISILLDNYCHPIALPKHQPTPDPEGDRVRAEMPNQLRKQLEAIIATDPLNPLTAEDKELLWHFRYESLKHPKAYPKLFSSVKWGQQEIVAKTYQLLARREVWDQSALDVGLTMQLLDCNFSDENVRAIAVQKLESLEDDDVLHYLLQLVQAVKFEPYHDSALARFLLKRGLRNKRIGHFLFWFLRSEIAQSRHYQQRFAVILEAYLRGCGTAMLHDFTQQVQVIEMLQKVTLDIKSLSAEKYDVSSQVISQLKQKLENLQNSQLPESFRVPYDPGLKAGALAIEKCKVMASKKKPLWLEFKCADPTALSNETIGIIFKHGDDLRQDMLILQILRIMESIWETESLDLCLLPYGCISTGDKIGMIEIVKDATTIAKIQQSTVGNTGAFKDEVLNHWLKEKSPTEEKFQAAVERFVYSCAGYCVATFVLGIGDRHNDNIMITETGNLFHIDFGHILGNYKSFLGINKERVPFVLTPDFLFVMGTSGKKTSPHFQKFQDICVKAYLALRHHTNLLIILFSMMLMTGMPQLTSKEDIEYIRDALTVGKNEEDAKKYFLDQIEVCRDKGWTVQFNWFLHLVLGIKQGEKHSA

SMILES	IC50 [1, 4] [µM]	IC50 [2, 5] [µM]	IC50 ([3]; Homo sapiens, Table A3) [µM]	also measured
Cc1ccc(C(O)(C(N)=O)C(F)(F)F)cc1-c1cnc(N)c(-c2ccc(CC#N)cc2)n1 (stereo not drawn) [Example 87, 2-(3-(5-amino-6-(4-(cyanomethyl)phenyl)pyrazin-2-yl)-4-methylphenyl)-3,3,3-trifluoro-2-hydroxypropanamide trifluoroacetate]	< 0.1	< 0.1	0.1 to 0.5	
Cc1ccc(C(O)(C(N)=O)C(F)(F)F)cc1-c1cnc(N)c(-c2cnnn2C)n1 (stereo not drawn) [Example 74, 2-(3-(5-amino-6-(1-methyl-1H-1,2,3-triazol-5-yl)pyrazin-2-yl)-4-methylphenyl)-3,3,3-trifluoro-2-hydroxypropanamide trifluoroacetate]	< 0.1	< 0.1	< 0.1	
Cc1ccc(C(O)(C(N)=O)C(F)(F)F)cc1-c1cnc(N)c(N2CCN(C(C)(C)C)C(=O)C2)n1 (stereo not drawn) [Example 113, 2-(3-(5-amino-6-(4-tert-butyl-3-oxopiperazin-1-yl)pyrazin-2-yl)-4-methylphenyl)-3,3,3-trifluoro-2-hydroxypropanamide trifluoroacetate]				IC50 ([1]; Table A4, scintillation proximity assay, recombinant human p110γ): < 0.1 µM; IC50 ([2]; Table A4, scintillation proximity assay, recombinant human PI3Kδ): 0.1 to 0.5 µM; IC50 ([3]; Homo sapiens, Table A4): 0.1 to 0.5 µM
Cc1ccc(C(O)(C(N)=O)C(F)(F)F)cc1-c1cnc(N)c(-c2cnn(CC3(C#N)CC3)c2)n1 (stereo not drawn) [Example 78, 2-(3-(5-amino-6-(1-((1-cyanocyclopropyl)methyl)-1H-pyrazol-4-yl)pyrazin-2-yl)-4-methylphenyl)-3,3,3-trifluoro-2-hydroxypropanamide trifluoroacetate]			< 0.1	IC50 [1]: < 0.1 µM; IC50 [2]: < 0.1 µM
CCCc1nc(-c2cc(C(O)(C(N)=O)C(F)(F)F)ccc2C)cnc1N (stereo not drawn) [Example 45, 2-(3-(5-amino-6-propylpyrazin-2-yl)-4-methylphenyl)-3,3,3-trifluoro-2-hydroxypropanamide]				IC50 [1, 6]: < 0.1 µM; IC50 [2, 7]: 0.1 to 0.5 µM; IC50 ([3]; Homo sapiens, Table A2): 0.1 to 0.5 µM
Cc1ccc(C(O)(C(N)=O)C(F)(F)F)cc1-c1cnc(N)c(C(=O)N[C@H]2CC[C@H](C(C)(C)O)CC2)n1 (stereo partly drawn) [Example 19, 3-amino-6-(5-(3-amino-1,1,1-trifluoro-2-hydroxy-3-oxopropan-2-yl)-2-methylphenyl)-N-((1r,4r)-4-(2-hydroxypropan-2-yl)cyclohexyl)pyrazine-2-carboxamide trifluoroacetate]				IC50 [1, 8]: < 0.1 µM; IC50 [2, 9]: < 0.1 µM; IC50 ([3]; Table A1): < 0.1 µM
Cc1ccc(C(O)(CNC=O)C(F)(F)F)cc1-c1cnc(N)c(-c2cn[nH]c2)n1 (stereo not drawn) [Example 103, N-(2-(3-(5-amino-6-(1H-pyrazol-4-yl)pyrazin-2-yl)-4-methylphenyl)-3,3,3-trifluoro-2-hydroxypropyl)formamide trifluoroacetate]	< 0.1	0.1 to 0.5	0.1 to 0.5	
Cc1ccc(C(O)(C(N)=O)C(F)(F)F)cc1-c1cnc(N)c(-c2ccc(B(O)O)cc2)n1 (stereo not drawn) [Example 97, (4-(3-Amino-6-(5-(3-amino-1,1,1-trifluoro-2-hydroxy-3-oxopropan-2-yl)-2-methylphenyl)pyrazin-2-yl)phenyl)boronic Acid]	< 0.1	< 0.1	0.1 to 0.5	
Cc1ccc(C(O)(C(N)=O)C(F)(F)F)cc1-c1cnc(N)c(-c2ccnc(CO)c2)n1 (stereo not drawn) [Example 85, 2-(3-(5-amino-6-(2-(hydroxymethyl)pyridin-4-yl)pyrazin-2-yl)-4-methylphenyl)-3,3,3-trifluoro-2-hydroxypropanamide bistrifluoroacetate]	< 0.1	< 0.1	0.1 to 0.5	
COC[C@H]1CCN1C(=O)c1nc(-c2cc(C(O)(C(N)=O)C(F)(F)F)ccc2C)cnc1N (stereo partly drawn) [Example 26, 2-(3-(5-amino-6-((R)-2-(methoxymethyl)azetidine-1-carbonyl)pyrazin-2-yl)-4-methylphenyl)-3,3,3-trifluoro-2-hydroxypropanamide]				IC50 [1, 8]: < 0.1 µM; IC50 [2, 9]: < 0.1 µM; IC50 ([3]; Homo sapiens, Table A1): 0.1 to 0.5 µM
Cc1ccc(C(O)(C(N)=O)C(F)(F)F)cc1-c1cnc(N)c(C#Cc2ccn[nH]2)n1 (stereo not drawn) [Example 52, 2-(3-(6-((1H-pyrazol-5-yl)ethynyl)-5-aminopyrazin-2-yl)-4-methylphenyl)-3,3,3-trifluoro-2-hydroxypropanamide]				IC50 [1, 6]: < 0.1 µM; IC50 [2, 7]: < 0.1 µM; IC50 ([3]; Homo sapiens, Table A2): 0.1 to 0.5 µM
Cc1ccc(C(O)(C(N)=O)C(F)(F)F)cc1-c1cnc(N)c(-c2cnn(C)c2)n1 (stereo not drawn) [Example 71, 2-(3-(5-amino-6-(1-methyl-1H-pyrazol-4-yl)pyrazin-2-yl)-4-methylphenyl)-3,3,3-trifluoro-2-hydroxypropanamide trifluoroacetate]	< 0.1	< 0.1	< 0.1	
Cc1ccc(C(O)(C(N)=O)C(F)(F)F)cc1-c1cnc(N)c(C#Cc2cncn2C)n1 (stereo not drawn) [Example 53, 2-(3-(5-amino-6-((1-methyl-1H-imidazol-5-yl)ethynyl)pyrazin-2-yl)-4-methylphenyl)-3,3,3-trifluoro-2-hydroxypropanamide]				IC50 [1, 6]: < 0.1 µM; IC50 [2, 7]: < 0.1 µM; IC50 ([3]; Table A2): 0.1 to 0.5 µM
Cc1ccc(C(O)(C(N)=O)C(F)(F)F)cc1-c1cnc(N)c(-c2ccc(CO)cc2)n1 (stereo not drawn) [Example 88, 2-(3-(5-amino-6-(4-(hydroxymethyl)phenyl)pyrazin-2-yl)-4-methylphenyl)-3,3,3-trifluoro-2-hydroxypropanamide trifluoroacetate]	< 0.1	< 0.1	0.1 to 0.5	
Cc1ccc(C(O)(C(N)=O)C(F)(F)F)cc1-c1cnc(N)c(C(=O)N[C@H]2CC[C@@](O)(C(F)(F)F)CC2)n1 (stereo partly drawn) [Example 18, 3-amino-6-(5-(3-amino-1,1,1-trifluoro-2-hydroxy-3-oxopropan-2-yl)-2-methylphenyl)-N-((1r,4r)-4-hydroxy-4-(trifluoromethyl)cyclohexyl)pyrazine-2-carboxamide trifluoroacetate]				IC50 [1, 8]: < 0.1 µM; IC50 [2, 9]: < 0.1 µM; IC50 ([3]; Table A1): < 0.1 µM
Cc1ccc(C(O)(CNC(=O)CC#N)C(F)(F)F)cc1-c1cnc(N)c(C(=O)NC(C)C)n1 (stereo not drawn) [Example 42, 3-Amino-6-(5-(3-(2-cyanoacetamido)-1,1,1-trifluoro-2-hydroxypropan-2-yl)-2-methylphenyl)-N-isopropylpyrazine-2-carboxamide trifluoroacetate]				IC50 [1, 8]: < 0.1 µM; IC50 [2, 9]: < 0.1 µM; IC50 ([3]; Homo sapiens, Table A1): 0.1 to 0.5 µM
Cc1ccc(C(O)(C(N)=O)C(F)(F)F)cc1-c1cnc(N)c(-c2cnn(C3CCOCC3)c2)n1 (stereo not drawn) [Example 77, 2-(3-(5-amino-6-(1-(tetrahydro-2H-pyran-4-yl)-1H-pyrazol-4-yl)pyrazin-2-yl)-4-methylphenyl)-3,3,3-trifluoro-2-hydroxypropanamide trifluoroacetate]	< 0.1	< 0.1	< 0.1	
Cc1ccc(C(O)(C(N)=O)C(F)(F)F)cc1-c1cnc(N)c(-c2cnn(CC3CC3)c2)n1 (stereo not drawn) [Example 86, 2-(3-(5-amino-6-(1-(cyclopropylmethyl)-1H-pyrazol-4-yl)pyrazin-2-yl)-4-methylphenyl)-3,3,3-trifluoro-2-hydroxypropanamide trifluoroacetate]	< 0.1	< 0.1	< 0.1	
Cc1ccc(C(O)(C(N)=O)C(F)(F)F)cc1-c1cnc(N)c(-c2ccc(C3CC3)cc2)n1 (stereo not drawn) [Example 92, 2-(3-(5-amino-6-(4-cyclopropylphenyl)pyrazin-2-yl)-4-methylphenyl)-3,3,3-trifluoro-2-hydroxypropanamide trifluoroacetate]	< 0.1	0.1 to 0.5	0.1 to 0.5	
Cc1ccc(-c2nc(-c3cc(C(O)(C(N)=O)C(F)(F)F)ccc3C)cnc2N)cn1 (stereo not drawn) [Example 82, 2-(3-(5-amino-6-(6-methylpyridin-3-yl)pyrazin-2-yl)-4-methylphenyl)-3,3,3-trifluoro-2-hydroxypropanamide bistrifluoroacetate]	< 0.1	< 0.1	0.1 to 0.5	
